According to BindingDB's records for doi:10.1016/s0960-894x(00)00661-2 (Niddk, 2001):

Biological target: T1, Corticotropin-releasing factor receptor 1 (Rattus norvegicus, UniProt P35353)
T1 sequence (P35353 whole entry): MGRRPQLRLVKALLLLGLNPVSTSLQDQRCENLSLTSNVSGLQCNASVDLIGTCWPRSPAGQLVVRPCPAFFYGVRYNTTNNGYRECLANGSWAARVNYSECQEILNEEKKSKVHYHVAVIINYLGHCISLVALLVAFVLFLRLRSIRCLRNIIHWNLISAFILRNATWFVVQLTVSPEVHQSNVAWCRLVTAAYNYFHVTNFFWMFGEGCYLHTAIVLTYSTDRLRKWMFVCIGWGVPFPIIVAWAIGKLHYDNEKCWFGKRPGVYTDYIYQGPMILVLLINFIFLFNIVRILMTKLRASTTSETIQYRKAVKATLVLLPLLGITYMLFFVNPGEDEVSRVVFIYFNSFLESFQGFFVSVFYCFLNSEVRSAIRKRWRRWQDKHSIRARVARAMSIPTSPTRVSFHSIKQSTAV
Experiment: ChEBML_51283
From the text: Binding affinity towards Corticotropin releasing hormone receptor type 1 of rat cerebellum using [125I]Tyr-sauvagine as radioligand.

Ki: 3 nM
Compound: CCC[CH2][Sn]([CH2]CCC)([CH2]CCC)[c]1cc(Cl)c(Nc2nc(C)nc(N(CCC)CC3CC3)c2Cl)c(Cl)c1 [5-Chloro-N-cyclopropylmethyl-N'-(2,6-dichloro-4-tributylstannanyl-phenyl)-2-methyl-N-propyl-pyrimidine-4,6-diamine]
